Assay results as given in patent publication US20230392126A1, “TISSUE ORGANOIDS” (priority 2016, published 2023).
pKd: −log10 of the molar value.

Columns and labels:
[1] = system: mouse epidermal stem cells; test: Cell proliferation and differentiation of engineered mouse epidermal cells in vitro (cell cycle FACS, calcium shift western blot); assay type: cell-based
Procedure: Primary human neonatal epidermal keratinocytes were obtained from Thermo Fischer® (C0015C), and cultured with Epilife® medium (Thermo Fischer, M-EPICF-500) with manufacturer's recommended procedures. Calcium shift was performed to induce differentiation of primary keratinocytes by increasing the calcium concentration in culture media to 1.5 mM.
Propidium iodide (PI) staining followed by flow cytometry were used to determine the effect of cell cycle profiles. Mouse and human epidermal cells were cultured in two 6 cm cell culture dish for 24 hours, respectively. Cells were trypsinized, and 1×10^5 cells from each dish were collected, followed by one PBS wash. […] After staining, the cells were analyzed immediately using flow cytometer BD FACSCanto™ II (BD Biosciences, San Jose, CA) with an excitation wavelength at 488 nm and emission at 585 nm. DNA content and histograms of cell cycle distribution were analyzed using FlowJo™ software, version 10 (FLOWJO LLC, OR).
Western blotting was performed as described previously (Blanpain et al.). […] Visualization and quantification was carried out with the LI-COR Odyssey® scanner and software (LI-COR Biosciences).
Propidium iodide (PI) staining followed by flow cytometry were used to determine the effect of cell cycle profiles. […] DNA content and histograms of cell cycle distribution were analyzed using FlowJo™ software, version 10 (FLOWJO LLC, OR). […]

[2] = PKU mouse model (PAH mutant, BTBR strain) grafted with PAL-expressing cells: plasma phenylalanine, fur color, tissue enzyme activity; assay type: in vivo; conditions: PAH mutant mice, ~2 mM plasma phenylalanine
Source text: The mouse model of PKU has been developed by ENU (N-ethyl-N-nitrosourea)-mediated mutagenesis in BTBR strain (Jax strain 002232).
With establishment of skin engraftment in PAH mutant mice, plasma phenylalanine level are monitored. Three weeks post skin grafting with PAL expressing cells or control cells (BTBR epidermal progenitor cells treated with control vectors), blood samples are collected from the tail clipping biweekly for up to 30 weeks. Plasma is separated by centrifugation. Phenylalanine concentration is determined by established fluorometric protocol. Lowering of phenylalanine level restores melanin biosynthesis, and leads to a change of fur color. Potential alteration in fur coat color is recorded weekly for all the grafted animals. […] Thus, two different cohorts of animals (male and female) are established to test the potential gender-dependent effect of cutaneous gene therapy in vivo.
At the endpoint of the experiment (30 weeks), grafted animals are euthanized and tissue samples (grafted skin, host skin, and liver) are collected. Presence of enzyme activity in the tissues is determined by PAH and PAL activity assay.
A complete phenotypic change from brown hair coat to dark black fur is also expected. For tissue enzymatic analysis, PAL activity detection in grafted skin is expected but not in other tissues. PAH activity is absent in the liver of the mutant mice. […]

[3] = Phenylalanine clearance by PAL-expressing mouse epidermal keratinocytes in vitro; assay type: cell-based
Source text: Therefore, using CRISPR-mediated genome editing with epidermal progenitor cell technology the possibility for treatment of PKU by cutaneous expression of PAL is investigated.
A complete phenotypic change from brown hair coat to dark black fur is also expected. For tissue enzymatic analysis, PAL activity detection in grafted skin is expected but not in other tissues. PAH activity is absent in the liver of the mutant mice. Female mice are more resistant to PKU therapy. If this is the case for cutaneous gene therapy, female PAH mutant mice are tested to determine whether they require larger skin grafts or more grafts than male mice for correction of hyperphenylalaninemia.

[4] = i.p., mice; cited from earlier work
[5] = Acute drug overdose test: cocaine-induced lethality; assay type: in vivo, mouse
Procedure: For all behavioral experiments except where noted, C57BL/6J mice were used. Roughly equal numbers of adult male and female mice were group-housed until surgery. Mice were maintained under controlled temperature and humidity conditions on a 12 h:12 h light:dark cycle (lights on at 7:00). Water and food were available ad libitum. Mice weighed around 25-30 g at the beginning of the experiments. All procedures followed National Institutes of Health Guide for the Care and Use of Laboratory Animal and were approved by the University of Chicago Institutional Animal Care and Use Committee.
Drug: Cocaine HCl and methamphetamine HCl (Sigma-Aldrich, Saint Louis, MO) were dissolved in sterile saline and delivered intraperitoneally at appropriates doses in a volume of 10 mL/kg. Ethanol (Sigma-Aldrich, Saint Louis, MO, 95%, density=0.816) was prepared in 20% (v/v) diluted in sterile saline and delivered intraperitoneally at appropriate doses. Vehicle (sterile saline) was intraperitoneally administered at 10 mL/kg as a control.
Acute drug overdose test: Two weeks after grafting surgery, 4 groups of GhBChE and 4 groups of GWT mice (n=8 each in each group) received i.p. injections of cocaine at […]. As a control, 4 groups of GhBChE and 4 groups of GWT mice (n=8 each) received i.p. injections of methamphetamine (METH) at 34, 68 (LD50), 100, and 160 mg/kg. Two each of GhBChE and GWT mice with CD1 mice as hosts were also used to videotape acute cocaine (80 mg/kg) induced behaviors. Mice were monitored for 2 h following injection and percent of cocaine- and METH-induced lethality was calculated.
To first determine whether engrafting hBChE-expressing cells protects mice from acute systemic toxicity of cocaine, we delivered different doses of cocaine to grafted mice and calculated the lethality rates of cocaine. […] Parallel testing was conducted to test the toxicity of a related stimulant METH (methamphetamine) in GhBChE and GWT mice.

[6] = system: epidermal progenitor cells; test: Suicide gene-induced cell death in epidermal progenitor cells upon prodrug treatment; assay type: cell-based; conditions: ganciclovir and 5-fluorocytosine, respectively; data not shown
Source text: To test this possibility, a Rosa26 targeting vector encoding phenylalanine ammonia lyase (PAL) (SEQ ID NO: 51) together with inducible “suicide” genes HSV-TK (Herpes Simplex Virus Thymidine Kinase) (SEQ ID NO: 52) and yCD (yeast cytosine deaminase) (SEQ ID NO: 53) was used for epidermal progenitor cell transfection.

GLP-1 receptor = target: T1, GLP-1 receptor (Mus musculus, UniProt O35659); conditions: mice; cited from earlier work
T1 construct: host or cells: living mice (endogenous receptor)
T1 sequence (O35659 22-463): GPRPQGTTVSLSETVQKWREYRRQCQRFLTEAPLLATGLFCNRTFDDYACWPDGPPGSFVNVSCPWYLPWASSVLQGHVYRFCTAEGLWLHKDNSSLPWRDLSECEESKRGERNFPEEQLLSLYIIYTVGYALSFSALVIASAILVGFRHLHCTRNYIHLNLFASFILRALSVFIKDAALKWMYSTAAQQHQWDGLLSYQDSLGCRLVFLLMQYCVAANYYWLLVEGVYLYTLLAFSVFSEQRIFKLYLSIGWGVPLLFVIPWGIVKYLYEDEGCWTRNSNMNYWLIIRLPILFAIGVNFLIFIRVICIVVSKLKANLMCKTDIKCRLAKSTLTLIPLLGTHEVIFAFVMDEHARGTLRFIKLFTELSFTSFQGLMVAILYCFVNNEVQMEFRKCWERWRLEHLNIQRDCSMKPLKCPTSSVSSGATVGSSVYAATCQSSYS

[7] = WT GGBP; read-out: glucose binding affinity (Kd); cited from earlier work

PAL: Phenylalanine ammonia-lyase (SEQ ID NO: 51) expressed in epidermal keratinocytes
effect of expression on cell proliferation / differentiation in vitro [1]: does not significantly alter cell proliferation or differentiation in vitro
effect on hyperphenylalaninemia [2]: sufficient for a complete reversal of hyperphenylalaninemia
degradation of phenylalanine in culture media compared with PAH ([3]; lentivirus-infected mouse epidermal keratinocytes, preliminary): much faster than cells expressing PAH
phenylalanine removal by grafts ([3]; two 1 cm^2 epidermal grafts, ~2×10^7 metabolically active cells): 57 pmol of phenylalanine per day

CN[C@@H](C)Cc1ccccc1 [METH, methamphetamine]
LD50 [4]: 68 mg/kg

COC(=O)[C@H]1[C@@H](OC(=O)c2ccccc2)C[C@@H]2CC[C@H]1N2C [cocaine]
lethality ([5]; 80 mg/kg i.p., control mice grafted with WT epidermal cells (GWT)): roughly 50%
lethality ([5]; 120 mg/kg i.p., GWT mice): 100%
lethality ([5]; 160 mg/kg i.p., GWT mice): 100%

HSV-TK: inducible suicide gene, Herpes Simplex Virus Thymidine Kinase (SEQ ID NO: 52), prodrug ganciclovir
cell death upon prodrug treatment [6]: efficiently induced cell death upon treatment with prodrugs

Exendin-4
effect on nicotine-induced behaviours (GLP-1 receptor): attenuates nicotine-induced locomotor stimulation, accumbal dopamine release, and the expression of conditioned place preference in mice

WT (wild type) GGBP: wild type glucose/galactose-binding protein of E. coli periplasm
pKd [7]: 6.70
